# How the values were obtained:
# [1] = Sensory evaluation of sweetness intensity in RebA solution, four reference samples (Experimental Examples 17-19)
# Experimental: A negative control RebA solution (0.073 wt % RebA solution) was prepared by dissolving RebA in filtered water.
# (§1) A sensory evaluation of sweetness intensity was performed for each sample by a panel of four experts according to the following evaluation criteria.
# Sweetness intensity was evaluated by 0.0 to 10.0 points based on the following reference samples (negative control (hereinafter referred to as NC) (0.0 point); reference 1 (hereinafter referred to as R1) (3.2 points), reference 2 (hereinafter referred to as R2) (5.0 points); reference 3 (hereinafter referred to as R3) (10.0 points)). The average score (rounded to two decimal places) of each expert panelist was calculated. An average score of 3.0 points or more was considered to be functional. • NC (0.0 point): 0.073 wt % RebA solution (solvent: filtered water) • R1 (3.2 points): 0.073 wt % RebA solution (solvent: filtered water)+decanoic acid (10 ppb) • R2 (5.0 points): 0.077 wt % RebA solution (solvent: filtered water) • R3 (10.0 points): 0.080 wt % RebA solution (solvent: filtered water)
# A sensory evaluation of sweetness intensity was performed for each sample by a panel of four experts according to the same evaluation criteria as in Experimental Example 17.
# [2] = Sensory evaluation of sweetness intensity in sucrose solution (Experimental Examples 25-27)
# Experimental: A negative control sucrose solution (0.7 wt % sucrose solution) was prepared by dissolving sucrose in filtered water.
# as §1
# Sweetness intensity was evaluated by 0.0 to 10.0 points based on the following reference samples (negative control (hereinafter referred to as NC) (0.0 point); reference 1 (hereinafter referred to as R1) (3.0 points), reference 2 (hereinafter referred to as R2) (5.0 points); reference 3 (hereinafter referred to as R3) (10.0 points)). The average score (rounded to two decimal places) of each expert panelist was calculated. An average score of 3.0 points or more was considered to be functional. • NC (0.0 point): 7.0 wt % sucrose solution (solvent: filtered water) • R1 (3.0 points): 7.3 wt % sucrose solution (solvent: filtered water) • R2 (5.0 points): 7.5 wt % sucrose solution (solvent: filtered water) • R3 (10.0 points): 8.0 wt % sucrose solution (solvent: filtered water)
# A sensory evaluation of sweetness intensity was performed for each sample by a panel of four experts according to the same evaluation criteria as in Experimental Example 25.
# [3] = added alone, 3.0 points or more
smiles,measurement,setting,value
O=C1C[C@@H](c2ccc(O)cc2)Oc2cc(O)cc(O)c21 [naringenin],concentration at which a sweetness-enhancing effect was confirmed,[1]; [3],≥ 10 ppm
same,sweetness intensity,[1]; naringenin alone at 1 ppm,1.8 points
same,sweetness intensity,[1]; naringenin alone at 5 ppm,2.5 points
same,sweetness intensity,[1]; naringenin alone at 10 ppm,3.3 points
same,sweetness intensity,[1]; naringenin alone at 15 ppm,4.1 points
same,sweetness intensity,[1]; naringenin alone at 30 ppm,5.0 points
same,sweetness intensity,[1]; naringenin alone at 50 ppm,5.4 points
same,concentration at which a sweetness-enhancing effect was confirmed,[2]; [3],≥ 15 ppm
same,sweetness intensity,[2]; naringenin alone at 1 ppm,1.1 points
same,sweetness intensity,[2]; naringenin alone at 5 ppm,1.7 points
same,sweetness intensity,[2]; naringenin alone at 10 ppm,2.6 points
same,sweetness intensity,[2]; naringenin alone at 15 ppm,3.6 points
same,sweetness intensity,[2]; naringenin alone at 30 ppm,4.6 points
same,sweetness intensity,[2]; naringenin alone at 50 ppm,5.8 points

# From US20250302080A1, “SWEETNESS AND/OR FLAVOR ENHANCER” (AJINOMOTO CO., INC., priority 2022, published 2025)
